Results: patent publication US20220168206A1, “ACTIVE AGENT FOR USE IN HAIR GROWTH REGULATION” (MONASTERIUM LABORATORY SKIN & HAIR RESEARCH SOLUTIONS GMBH, priority 2019, published 2022)

Legend:
[1] = test system: TAS2R4 in anagen hair follicles; test: Inactivation of TAS2R4 with BCML in cultured hair follicles; type: cell-based, human
Procedure: For analyzing the effect of inactivating TAS2R4, by the inverse agonist Nα,Nα-bis(carboxymethyl)-l-lysine (BCML), hair follicles were cultured in WEM medium supplemented with 2 mM L-glutamine, 10 ng/mL hydrocortisone, 10 μg/mL insulin and 1% penicillin/streptomycin mix (WCM medium), and treated either with 120 μM BCML (Sigma-Aldrich, cat. 14580) diluted in WCM or vehicle (WCM medium) according to the following procedure:
(§1) Day 0: Isolation of anagen hair follicles
Day 1: Change media, application of the substance corresponding to experimental groups (control group: WCM, experimental group: 120 μM BCML)
Day 7: Collection and freezing of hair follicles for analyses

[2] = test system: TAS2R4 in human anagen hair follicles; test: Activation of TAS2R4 with Rebaudioside A in cultured hair follicles; type: cell-based
Procedure: (§2) For analyzing the effect of activating TAS2R4 by the agonist Rebaudioside A, human anagen hair follicles from 2 donors were cultured in WEM medium supplemented with 2 mM L-glutamine, 10 ng/mL hydrocortisone, 10 μg/mL insulin and 1% penicillin/streptomycin mix (WCM medium), and treated either with 200 μM Rebaudioside A (Sigma-Aldrich, cat. 01432) diluted in DMSO or vehicle (0.5% DMSO in WCM medium) according to the following procedure:
as §1
Day 1: Change WCM media, application of the substance corresponding to experimental groups (control group: 0.5% DMSO, experimental group: 200 μM Rebaudioside A)
(§3) Day 6: Collection and freezing of hair follicles for analyses

[3] = test system: TAS2R4 in anagen hair follicles; test: Activation of TAS2R4 with Rubusoside in cultured hair follicles; type: cell-based, human
Procedure: as §2, with “Rubusoside,” for “Rebaudioside A, human anagen”, “follicles” for “follicles from 2 donors”, “50” for “200”, “Rubusoside” for “Rebaudioside A”, “62933)” for “01432)”, “(0.05%” for “(0.5%”
as §1
Day 1: Change media, application of the substance corresponding to experimental groups (control group: 0.05% DMSO, experimental group: 50 μM Rubusoside)
as §3

[4] = test system: TAS2R4 in anagen hair follicles; test: Activation of TAS2R4 with Stevioside in cultured hair follicles; type: cell-based, human
Procedure: To determine the effect of activating TAS2R4 by the agonist Stevioside, anagen hair follicles were cultured in WEM medium supplemented with 2 mM L-glutamine, 10 ng/mL hydrocortisone, 10 μg/mL insulin and 1% penicillin/streptomycin mix (WCM medium), and treated either with 200 μM Stevioside (Sigma-Aldrich, cat. 50956) diluted in DMSO or vehicle (0.2% DMSO in WCM medium) according to the following procedure: Day 0: Isolation of anagen hair follicles Day 1: Change media, application of the substance corresponding to experimental groups (control group: 0.2% DMSO, experimental group: 200 μM Stevioside) Day 2: Rest Day 3: Change media Day 4: Rest Day 5: Change media Day 6: Rest Day 7: Collection and freezing of hair follicles for analyses

[5] = 120 μM BCML vs vehicle (WCM), collection day 7
[6] = 200 μM Rebaudioside A vs 0.5% DMSO, collection day 6
[7] = 200 μM Stevioside vs 0.2% DMSO, collection day 7

Q: Which results are given for `NCCCC[C@@H](C(=O)O)N(CC(=O)O)CC(=O)O` [BCML, Nα,Nα-bis(carboxymethyl)-l-lysine]?
A: apoptosis [1, 5]: does not affect; hair matrix keratinocyte proliferation [1, 5]: increases; pigmentation [1, 5]: increases; proportion of hair follicles in anagen stage [1, 5]: increases; hair growth ([1]; summary statement, anagen hair follicles, BCML): hair growth promotion

Q: Which “proportion of hair follicles in catagen stage” value ([2]; 200 μM Rebaudioside A vs 0.5% DMSO, 2 donors, collection day 6) does the source give for `C=C1C[C@@]23CC[C@H]4[C@@](C)(CCC[C@@]4(C)C(=O)O[C@@H]4O[C@H](CO)[C@@H](O)[C@H](O)[C@H]4O)[C@@H]2CC[C@]1(O[C@@H]1O[C@H](CO)[C@@H](O)[C@H](O[C@@H]2O[C@H](CO)[C@@H](O)[C@H](O)[C@H]2O)[C@H]1O[C@@H]1O[C@H](CO)[C@@H](O)[C@H](O)[C@H]1O)C3` [Rebaudioside A] here?
A: The value was “increases”.

Q: And the apoptosis [2, 6]?
A: The apoptosis was “increases”.

Q: And the “hair matrix keratinocyte proliferation” value [2, 6]?
A: Its value is “decreases”.

Q: And the pigmentation [2, 6]?
A: The pigmentation was “hypopigmentation”.

Q: And the hair growth ([2]; summary statement, Rebaudioside A)?
A: The hair growth was “hair growth inhibition”.

Q: How did the “proportion of human hair follicles in catagen stage” value ([3]; 50 μM Rubusoside vs 0.05% DMSO, collection day 6) turn out when `C=C1C[C@@]23CC[C@H]4[C@@](C)(CCC[C@@]4(C)C(=O)O[C@@H]4O[C@H](CO)[C@@H](O)[C@H](O)[C@H]4O)[C@@H]2CC[C@]1(O[C@@H]1O[C@H](CO)[C@@H](O)[C@H](O)[C@H]1O)C3` [Rubusoside] was run?
A: Its value is “increases”.

Q: And the hair growth ([3]; summary statement, Rubusoside)?
A: Its hair growth is “hair growth inhibition”.

Q: How did the apoptosis [4, 7] turn out when `C=C1C[C@@]23CC[C@H]4[C@@](C)(CCC[C@@]4(C)C(=O)O[C@@H]4O[C@H](CO)[C@@H](O)[C@H](O)[C@H]4O)[C@@H]2CC[C@]1(O[C@@H]1O[C@H](CO)[C@@H](O)[C@H](O)[C@H]1O[C@@H]1O[C@H](CO)[C@@H](O)[C@H](O)[C@H]1O)C3` [Stevioside] was run?
A: Its apoptosis is “does not affect”.

Q: What about the “hair matrix keratinocyte proliferation” value [4, 7] of the same molecule?
A: Its value is “decreases”.

Q: And the “proportion of hair follicles in catagen stage” value [4, 7]?
A: The value was “increases”.

Q: What about the hair growth ([4]; summary statement, Stevioside) of the same molecule?
A: Its hair growth is “hair growth inhibition”.
